Experimental data as given in article PMC10147923, “Pain-causing stinging nettle toxins target TMEM233 to modulate NaV1.7 function” (Nature Communications, 2023).
Where “and” joins values, the source holds several entries; their conditions need not be identical. Identical values can stand only once. Like-named read-outs stand apart in the source and are kept apart here. Positions of bridges follow the written chain, without caps; N, C: chain ends. Residues, ends and D or L forms follow the SMILES beside them.

Assays:
[1] = tested on: total and TTX-s NaV current in wild-type DRG neurons; assay: Persistent total NaV current, manual patch clamp, mouse DRG neurons; type: cell-based
[2] = tested on: NaV1.9; type: cell-based, mouse
[3] = tested on: NaV1.7 endogenously expressed in TE-671 cells; assay: Persistent NaV current, TE-671 cells (automated patch clamp); type: cell-based
[4] = tested on: hNaV1.2; assay: Persistent current, HEK293-hNaV1.2/β1; type: cell-based, human; conditions: ExTxA 1 µM; individual cells
[5] = tested on: hNaV1.7; type: cell-based, human
[6] = tested on: hNaV1.7; assay: Persistent current, Xenopus oocytes expressing hNaV1.7 (two-electrode voltage clamp); type: cell-based, human; conditions: ExTxA 1 µM
Method: Human NaV1.7 and TMEM233 genes cloned into pcDNA3.1 plasmid were linearized with NotI restriction enzyme and used as template for cRNA synthesis using T7 polymerase (mMessage mMachine Kit; Life Technologies). Stage V/VI oocytes were injected with 5–20 ng total RNA, then incubated at 17 °C for 1–3 days in 50% Leibovitz’s L-15 medium (Gibco), supplemented with 25 µg/mL gentamicin, 25 µg/mL streptomycin, and 2.5% fetal horse serum. Two-electrode voltage clamp (Axoclamp 900 A amplifier; Axon Instruments) were performed at room temperature in ND96 solution (in mM: 96 NaCl, 2 KCl, 1 MgCl2, 1.8 CaCl2, 5 HEPES; pH 7.4 with NaOH) with a ∼40 μL recording chamber. In experiments where ExTxA was added, solutions were supplemented with 0.05% fatty-acid free bovine serum albumin. Borosilicate glass microelectrodes had resistances of 0.2–0.8 MΩ when backfilled with 3 M KCl. Data were digitized at 20 kHz and filtered at 2 kHz using pCLAMP 11 software (Digidata 1550B; Axon Instruments).
ExTxA activity was assayed at 1 µM, analyzing the current from a 50 ms step to −10 mV every 10 s, from a holding volage of −80 mV. For all other voltage protocols, oocytes were held at −90 mV. Activation curves were obtained by measuring peak currents during steps from −100 mV to +60 mV in +10 mV increments applied every 10 s, with G/Gmax plot between −80 mV and +10 mV. […]

[7] = tested on: hNaV1.7; assay: Persistent current, CHO hNaV1.7, no β subunit; type: cell-based, human; conditions: ExTxA 1 µM
[8] = tested on: total NaV current in wild-type DRG neurons; assay: Persistent NaV current, wild-type littermate DRG neurons; type: cell-based, mouse; conditions: ExTxA 30 nM; wildtype; mean ± SEM, n = 6
[9] = tested on: Tmem233Cre/Cre knockout mice; assay: Nocifensive behaviors after intraplantar injection, Tmem233Cre/Cre mice; type: in vivo, mouse
Method: Nocifensive responses to intraplantar administration of ExTxA (5–10 nM) were assessed as previously described. In brief, ExTxA was diluted in sterile saline/0.1% BSA and administered by an intraplantar injection (40 μL) into a single hind paw of Tmem233^Cre/Cre, NaV1.7^Advill and wild-type littermate controls. Pain behaviors, consisting of paw licks or flinches, were counted from video recordings by a blinded investigator for up to 60 min following injection.

[10] = NMR of 15N-labelled ExTxA with dodecylphosphocholine micelles; type: binding; conditions: 1H-15N TROSY, 30 µM peptide, 20 mM Tris pH 8, 50 mM NaCl, 10% DPC, 298 K
Method: For NMR analysis, lyophilized ^15N-labelled ExTxA was resuspended either in 40% deuterated acetonitrile or buffer containing 20 mM Tris pH 8, 50 mM NaCl, 10% (w/v) dodecylphosphocholine (DPC) and 5% D2O. ^1H-^15N transverse relaxation optimized spectroscopy (TROSY) spectra were acquired for the peptide samples (30 µM) on a Bruker Avance 900 MHz NMR spectrometer equipped with a triple resonance cryogenic probe at 298 K. The spectra were processed using TOPSPIN v4.1.4 software (Bruker, Massachusetts, USA).

[11] = target: NaV1.7/TMEM233 (Homo sapiens, UniProt B4DJY2+Q15858); type: cell-based; conditions: extracellular ExTxA
Method: To determine recovery from fast inactivation, a 20 ms pulse to 0 mV from a holding potential of −90 mV was used to induce fast inactivation. A subsequent recovery period, ranging from 1 ms to 2216 ms in 50% increments at −90 mV, was followed by a last 20 ms test pulses to 0 mV to determine the time-dependence of recovery from fast inactivation. The proportion of available channels was determined by normalizing peak currents from the last to the first pulse. A two-phase exponential equation was fit to the normalized current, plotted as a function of time, to determine the time constants τ1 and τ2 of recovery from fast inactivation.

[12] = target: NaV1.7/TRARG1 (Homo sapiens, UniProt Q15858+Q8IXB3); type: cell-based
Chain of NaV1.7/TRARG1 (Q07699 19-218): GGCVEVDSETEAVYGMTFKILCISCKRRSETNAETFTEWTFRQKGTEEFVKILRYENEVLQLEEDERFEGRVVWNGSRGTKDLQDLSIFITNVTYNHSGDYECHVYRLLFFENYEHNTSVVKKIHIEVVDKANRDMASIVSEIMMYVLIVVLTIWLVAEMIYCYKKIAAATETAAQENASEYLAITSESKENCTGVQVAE
Chain of NaV1.7/TRARG1 (Q15858 whole entry): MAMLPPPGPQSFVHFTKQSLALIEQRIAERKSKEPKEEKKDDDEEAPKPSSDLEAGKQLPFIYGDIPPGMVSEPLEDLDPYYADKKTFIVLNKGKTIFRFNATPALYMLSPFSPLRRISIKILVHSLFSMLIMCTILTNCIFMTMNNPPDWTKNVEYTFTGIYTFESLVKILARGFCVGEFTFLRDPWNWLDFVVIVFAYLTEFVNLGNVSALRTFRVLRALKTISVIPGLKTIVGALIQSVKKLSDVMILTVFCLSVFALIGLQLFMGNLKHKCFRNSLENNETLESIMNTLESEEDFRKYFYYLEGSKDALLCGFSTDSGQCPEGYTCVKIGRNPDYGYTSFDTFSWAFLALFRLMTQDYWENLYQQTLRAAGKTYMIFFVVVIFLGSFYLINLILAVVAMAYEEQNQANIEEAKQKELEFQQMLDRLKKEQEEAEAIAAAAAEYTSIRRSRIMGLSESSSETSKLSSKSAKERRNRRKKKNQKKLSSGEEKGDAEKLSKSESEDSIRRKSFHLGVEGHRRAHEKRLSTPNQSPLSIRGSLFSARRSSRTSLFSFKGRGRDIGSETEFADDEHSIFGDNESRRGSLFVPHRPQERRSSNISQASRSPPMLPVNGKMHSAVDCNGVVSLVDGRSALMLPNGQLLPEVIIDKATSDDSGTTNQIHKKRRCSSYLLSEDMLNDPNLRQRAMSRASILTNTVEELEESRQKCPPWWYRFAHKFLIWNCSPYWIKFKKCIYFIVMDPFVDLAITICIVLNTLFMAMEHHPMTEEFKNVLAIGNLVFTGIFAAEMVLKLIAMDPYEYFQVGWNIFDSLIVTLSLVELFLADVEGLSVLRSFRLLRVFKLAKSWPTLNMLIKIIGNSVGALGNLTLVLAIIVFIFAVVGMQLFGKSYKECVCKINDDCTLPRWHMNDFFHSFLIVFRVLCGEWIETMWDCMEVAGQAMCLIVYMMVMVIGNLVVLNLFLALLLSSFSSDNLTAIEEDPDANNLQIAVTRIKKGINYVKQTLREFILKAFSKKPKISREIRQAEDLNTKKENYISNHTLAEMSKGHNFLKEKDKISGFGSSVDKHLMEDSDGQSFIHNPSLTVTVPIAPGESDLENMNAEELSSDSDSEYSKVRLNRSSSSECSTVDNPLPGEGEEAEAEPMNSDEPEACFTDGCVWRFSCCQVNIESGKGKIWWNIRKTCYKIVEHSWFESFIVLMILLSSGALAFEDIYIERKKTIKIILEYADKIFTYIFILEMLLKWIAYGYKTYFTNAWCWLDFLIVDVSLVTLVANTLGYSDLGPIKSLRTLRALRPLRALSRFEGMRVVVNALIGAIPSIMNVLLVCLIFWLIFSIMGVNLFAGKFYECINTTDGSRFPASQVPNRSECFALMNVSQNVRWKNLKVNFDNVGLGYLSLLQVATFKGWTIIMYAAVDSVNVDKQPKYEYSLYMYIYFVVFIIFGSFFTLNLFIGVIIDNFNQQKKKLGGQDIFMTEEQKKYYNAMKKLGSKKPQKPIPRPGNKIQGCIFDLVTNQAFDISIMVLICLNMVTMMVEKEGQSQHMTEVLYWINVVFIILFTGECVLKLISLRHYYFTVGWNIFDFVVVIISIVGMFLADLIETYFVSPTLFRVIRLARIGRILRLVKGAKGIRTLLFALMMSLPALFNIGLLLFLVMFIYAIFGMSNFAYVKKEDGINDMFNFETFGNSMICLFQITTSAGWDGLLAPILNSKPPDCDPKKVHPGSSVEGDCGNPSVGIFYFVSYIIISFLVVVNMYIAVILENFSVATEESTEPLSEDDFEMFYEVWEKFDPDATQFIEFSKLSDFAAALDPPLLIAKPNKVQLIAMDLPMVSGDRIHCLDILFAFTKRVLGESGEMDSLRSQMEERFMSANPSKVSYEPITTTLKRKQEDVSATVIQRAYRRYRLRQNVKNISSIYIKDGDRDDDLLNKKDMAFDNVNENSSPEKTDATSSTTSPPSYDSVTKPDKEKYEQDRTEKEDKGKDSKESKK
Chain of NaV1.7/TRARG1 (Q8IXB3 whole entry): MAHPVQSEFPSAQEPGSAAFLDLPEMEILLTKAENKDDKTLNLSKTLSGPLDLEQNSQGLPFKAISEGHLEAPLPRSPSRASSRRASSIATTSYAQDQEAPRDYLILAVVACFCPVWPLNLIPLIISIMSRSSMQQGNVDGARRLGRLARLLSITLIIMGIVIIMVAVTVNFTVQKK

[13] = tested on: TE-671 cells; conditions: ExTxA 1 µM + veratridine 5 µM + ouabain 20 nM
[14] = hNaV1.7 alone, mean ± SEM, n = 6

SMILES: CC[C@H](C)[C@@H]1NC(=O)[C@H](CCCNC(=N)N)NC(=O)[C@H](Cc2ccccc2)NC(=O)[C@H](CC(C)C)NC(=O)[C@H](CO)NC(=O)[C@@H]2CSSC[C@@H]3NC(=O)[C@H]([C@@H](C)O)NC(=O)[C@H](CSSC[C@H](NC(=O)[C@H](CCCNC(=N)N)NC(=O)[C@@H]4CCCN4C(=O)[C@@H](N)CC(C)C)C(=O)N[C@@H](CC(=O)O)C(=O)N[C@@H](CO)C(=O)N4CCC[C@H]4C(=O)N[C@@H](Cc4ccccc4)C(=O)N2)NC(=O)[C@H](CCCCN)NC(=O)[C@H](CC(=O)O)NC(=O)CNC(=O)[C@H](CSSC[C@@H](C(=O)N[C@H](C(=O)N2CCC[C@H]2C(=O)N[C@@H](CC(=O)O)C(=O)N[C@H](C(=O)O)C(C)C)C(C)C)NC(=O)[C@H](CC(C)C)NC(=O)CNC(=O)[C@H](Cc2ccccc2)NC(=O)[C@H]([C@@H](C)CC)NC(=O)[C@@H]2CCCN2C(=O)[C@H](CC(C)C)NC(=O)[C@@H]2CCCN2C(=O)[C@H](C(C)C)NC3=O)NC(=O)[C@H](CC(C)C)NC(=O)CNC1=O [ExTxA, excelsatoxin A] (H-LPRCDSPFCSLFRIGLCGDKCTCVPLPIFGLCVPDV-OH; disulfide 4-21, 9-23, 17-32)
- DRG total persistent NaV current (I40 ms/Ipeak) ([1]; ExTxA 100 nM in 0.1% BSA, depolarization to -20 mV from -90 mV, mean, n = 6): 0.513 ± 0.10 and 0.5133
- Mean Diff. of persistent current, Control vs. ExTxA ([1]; ExTxA 100 nM, Tukey's multiple comparisons): -0.4859
- DRG total persistent NaV current (I40 ms/Ipeak) ([1]; ExTxA 100 nM, individual cells, one line per cell): 0.842 and 0.3774 and 0.8283 and 0.3793 and 0.3284 and 0.3245
- DRG NaV1.9 Δ persistent current (I90 ms/Ipeak) [2]: -0.057 ± 0.028
- ExTxA-induced persistent current (I40 ms/Ipeak; nA) [3]: 0.8135
- persistent current (I40 ms/Ipeak) [3]: 0.8735 and 0.8209 and 0.7837 and 0.8022 and 0.7553 and 0.8064 and 0.8529
- Mean Diff. of persistent current, Buffer vs. ExTxA ([3]; ExTxA 100 nM): -0.2502
- TE-671 persistent current (I40 ms/Ipeak) ([3]; ExTxA 100 nM, individual cells): 0.226 and 0.2237 and 0.255 and 0.3482 and 0.2794 and 0.2574 and 0.2313 and 0.3524
- TE-671 persistent current (I40 ms/Ipeak) ([3]; ExTxA 100 nM, mean, n = 8): 0.272 ± 0.018 and 0.2717
- persistent current (I40 ms/Ipeak) ([3]; ExTxA 1 µM, individual cells): 0.6558 and 0.8078 and 0.6143 and 0.6966 and 0.7266 and 0.5751 and 0.7653 and 0.7674 and 0.8038 and 0.7341 and 0.767
- Δ persistent current (I40 ms/Ipeak; buffer cf. ExTxA) ([3]; ExTxA 1 µM, mean): 0.719 ± 0.0230 and 0.7194
- ExTxA-induced persistent current (I40 ms/Ipeak; nA) ([3]; ExTxA 1 µM, wildtype TE-671 (Fig. 3d), mean, n = 7): 0.81 ± 0.015
- persistent current (I40 ms/Ipeak) [4]: -0.01884 and -0.01572 and 0.004985 and 0.03852 and -0.01184 and -0.02181 and 0.005193 and -0.01291 and 0.01563 and -0.00224 and -0.00414
- persistent current, Predicted (LS) mean diff. [5]: -0.04169
- persistent current (I40 ms/Ipeak) ([5]; ExTxA 100 nM in ECS, mean ± SEM, n = 10): 0.04 ± 0.014
- persistent current (I40 ms/Ipeak) ([5]; ExTxA 100 nM in ICS, mean ± SEM, n = 10): -0.002 ± 0.004
- persistent current ([5]; ExTxA 1 µM, HEK NaV1.7/β1, individual cells): -10.167 pA and -21.3045 pA and 17.0051 pA and 11.4493 pA and -20.8771 pA and -5.293 pA and -9.443 pA and -10.0671 pA and 5.003 pA and -11.1496 pA and -2.37 pA
- persistent current (I40 ms/Ipeak) ([5]; ExTxA 1 µM, individual cells): -0.00096 and -0.00393 and -0.00509 and -0.00016 and 0.00507 and -0.00078 and -0.00158 and -0.00022 and -9.8e-6 and 0.000228 and 0.002683
- Xenopus oocyte persistent current (I40 ms/Ipeak) [6, 14]: 0.081 ± 0.012
- persistent current (I40 ms/Ipeak) ([6]; individual oocytes): 0.01056 and 0.002122 and 0.005805 and 0.01324 and 0.01132 and 0.02838 and 0.05496 and 0.01837 and -0.00648 and -0.01247 and 0.02865
- CHO cells persistent current (I40 ms) [7, 14]: 0.000 ± 0.002 nA
- Δ persistent current (I40 ms/Ipeak) in CHO hNaV1.7 ([7]; no β subunit, mean, n = 12): 0.001 ± 0.004 and 0.0009513
- ExTxA-induced persistent current (I40ms/Ipeak; nA) in DRG neurons [8]: 0.573 ± 0.086
- nocifensive behaviors, 0-40 min combined (Fig. 3g) ([9]; TMEMCre KO, 0-40 min, individual animals, one line each (n = 16)): 8 and 6 and 329 and 151 and 352 and 36 and 124 and 41 and 45 and 71 and 136 and 66 and 142 and 96
- nocifensive behaviors, 0-40 min combined, mean (Fig. 3g) ([9]; TMEMCre KO, 0-40 min, mean, n = 16): 115.9
- ExTxA-induced pain behaviours (cumulative paw licks and flinches over 40 min) ([9]; i.pl. ExTxA 10 nM, Tmem233Cre KO, mean ± SEM, n = 16): 115.9 ± 25.3
- ExTxA-induced nocifensive behaviors in Tmem233Cre/Cre KO mice ([9]; mouse, in vivo): significantly reduced
- nocifensive behaviors, 0-40 min combined, difference between means (B - A) ± SEM (Fig. 3g) ([9]; mouse, in vivo): -118.4 ± 37.67
- association with dodecylphosphocholine micelles [10]: associates with dodecylphosphocholine micelles
- time constants of recovery from inactivation [11]: a decrease in the time constants of recovery from inactivation
- LogEC50 ([12]; Nav1.7/TRARG1, 95% CI -6.511 to -5.182, Fig 4g): -5.623
- HillSlope ([12]; Nav1.7/TRARG1, Fig 4g): 0.6926
- Top ([12]; Nav1.7/TRARG1, best-fit, constraint Top < 1, Fig 4g): 1
- ExTxA-induced currents with TRARG1 ([12]; co-expression with NaV1.7): resulted in ExTxA-induced persistent currents
- effect of gene knockdown on ExTxA cytotoxicity [13]: prevented by the knockdown of SCN9A (the gene encoding the NaV1.7 α subunit) as well as ten other genes (RNF121, GPAA1, PIGT, CRELD1, PIGK, STT3B, TMEM233, PIGS, MMGT1, and LMAN2L), and exacerbated by knockdown of SPAG5, TMEM161B and NEDD4L
